Values quoted from earlier work in US20200179438A1, “BLOOD GLUCOSE SPIKE SUPPRESSOR, FOOD PRODUCT, AND METHOD FOR PRODUCING BLOOD GLUCOSE SPIKE SUPPRESSOR” (priority 2017, published 2020).

Conditions: for time until HB purity decreases after its increase: oral administration

C[C@@H](O)CC(=O)O [HB, (R)-3-hydroxybutyric acid]
time until HB purity decreases after its increase: within several hours

C[C@@H](O)CCOC(=O)C[C@@H](C)O [KE]
time until HB purity decreases after its increase: within several hours
HB purity in the blood after oral administration (oral, reached in several minutes): several millimolar
